According to PMC4791841, “Nanomolar Inhibitors of Trypanosoma brucei RNA Triphosphatase” (mBio, 2016):
Like-named read-outs stand apart in the source and are kept apart here.

Tests used:
[1] = biological target: T1, MimiCE (Acanthamoeba polyphaga mimivirus, UniProt Q5UQX1); assay: biochemical; type: biochemical; settings: for IC50/IC50 TbCet1, MimiCE: ratio in parentheses;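 for all read-outs here: mimivirus capping enzyme triphosphatase ATPase reaction, radiolabeled ATP hydrolysis to Pi quantified by TLC after 10 min, normalized to no-inhibitor control with 5% DMSO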
T1 construct: the N-terminal RTPase domain (amino acids [aa] 1 to 237) of mimivirus capping enzyme (MimiCE); HisSmt3 (N, cleaved yes); made in house; host or cells: Escherichia coli

[2] = biological target: T2, SceCet1 (Saccharomyces cerevisiae, UniProt O13297); assay: TLC assay for 32Pi release from [γ-32P]ATP, SceCet1; type: biochemical; settings: for IC50/IC50 TbCet1, SceCet1: ratio in parentheses
T2 construct: C-terminal catalytic domain (aa 241 to 539) of S. cerevisiae RTPase (SceCet1); made in house; host or cells: Escherichia coli

[3] = biological target: T3, Lef4 (Autographa californica nuclear polyhedrosis virus, UniProt P41477); assay: TLC assay for 32Pi release from [γ-32P]ATP, Lef4; type: biochemical, Autographa californica nucleopolyhedrovirus (AcNPV); settings: for IC50/IC50 TbCet1, Lef4: ratio in parentheses;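 for all read-outs here: Lef4 RNA triphosphatase cleaving radiolabelled ATP over 10 min at 37°C, hydrolysis set relative to inhibitor-free 5% DMSO controls, comparisons made against TbCet1 tested the same way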
T3 construct: the N-terminal RTPase domain (aa 1 to 236) of AcNPV Lef4 capping enzyme; HisSmt3 (N, cleaved yes); made in house; host or cells: Escherichia coli

[4] = biological target: T4, CthTTM (Acetivibrio thermocellus, UniProt A3DIJ8); assay: TLC assay for 32Pi release from [γ-32P]ATP, CthTTM; type: biochemical, Clostridium thermocellum; settings: for IC50/IC50 TbCet1, CthTTM: ratio in parentheses
T4 sequence (A3DIJ8 1-156): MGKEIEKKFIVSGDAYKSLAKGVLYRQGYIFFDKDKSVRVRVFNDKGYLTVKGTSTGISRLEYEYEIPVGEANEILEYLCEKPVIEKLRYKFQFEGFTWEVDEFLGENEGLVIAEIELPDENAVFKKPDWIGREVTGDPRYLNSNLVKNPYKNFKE

[5] = biological target: T5, TbCet1 (Trypanosoma brucei brucei, UniProt Q582T2); assay: TLC assay for 32Pi release from [γ-32P]ATP, TbCet1; settings: for IC50: 2.2 nM TbCet1, 0.2 mM ATP, 2 mM Mn2+, 10 min 37°C; for inhibition of TbCet1 (in words): 32P phosphate release assay
T5 sequence (Q582T2 1-253): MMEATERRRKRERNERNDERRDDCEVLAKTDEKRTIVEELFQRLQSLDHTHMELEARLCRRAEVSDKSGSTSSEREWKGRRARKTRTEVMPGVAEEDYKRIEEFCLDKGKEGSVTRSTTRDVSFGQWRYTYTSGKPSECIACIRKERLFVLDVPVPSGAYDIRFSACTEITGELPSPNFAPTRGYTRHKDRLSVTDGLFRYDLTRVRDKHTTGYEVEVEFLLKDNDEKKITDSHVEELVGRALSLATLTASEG

[6] = read-out: IC50 MimiCE, 7 nM MimiCE, 37°C
[7] = 25 nM SceCet1, 30°C, read-out: IC50 SceCet1
[8] = 50 nM Lef4, 37°C, read-out: IC50 Lef4
[9] = 500 nM CthTTM, 37°C, read-out: IC50 CthTTM
[10] = read-out: IC50 SceCet1, 25 nM SceCet1, 30°C
[11] = read-out: IC50 CthTTM, 500 nM CthTTM, 37°C
[12] = read-out: IC50 TbCet1 by 32P assay

T3 sequence (P41477 1-236): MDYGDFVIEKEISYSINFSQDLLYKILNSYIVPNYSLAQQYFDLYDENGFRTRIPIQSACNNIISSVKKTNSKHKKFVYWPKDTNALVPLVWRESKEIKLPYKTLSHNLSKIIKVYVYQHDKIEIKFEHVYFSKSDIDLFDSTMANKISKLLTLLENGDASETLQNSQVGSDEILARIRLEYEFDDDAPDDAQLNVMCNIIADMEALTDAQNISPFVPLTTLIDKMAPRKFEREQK
T1 sequence (Q5UQX1 1-237): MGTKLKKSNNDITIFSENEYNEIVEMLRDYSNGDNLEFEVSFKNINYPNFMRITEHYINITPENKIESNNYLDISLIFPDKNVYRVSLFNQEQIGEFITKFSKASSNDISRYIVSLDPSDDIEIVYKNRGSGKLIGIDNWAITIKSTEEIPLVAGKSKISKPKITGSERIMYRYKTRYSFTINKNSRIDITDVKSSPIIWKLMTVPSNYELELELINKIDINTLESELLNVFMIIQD
T2 sequence (O13297 241-539): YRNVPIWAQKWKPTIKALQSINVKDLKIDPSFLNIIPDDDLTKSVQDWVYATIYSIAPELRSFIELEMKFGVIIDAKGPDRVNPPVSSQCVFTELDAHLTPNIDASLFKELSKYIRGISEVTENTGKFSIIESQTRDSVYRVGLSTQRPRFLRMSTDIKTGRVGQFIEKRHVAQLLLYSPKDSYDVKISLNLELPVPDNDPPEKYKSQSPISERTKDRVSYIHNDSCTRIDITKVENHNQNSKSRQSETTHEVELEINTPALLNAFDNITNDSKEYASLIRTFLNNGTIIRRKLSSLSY

IC50 [5, 12]	Structure (SMILES)	IC50/IC50 TbCet1, MimiCE [1]	IC50 [3, 8]	IC50/IC50 TbCet1, Lef4 [3]	IC50 [4, 9]	IC50/IC50 TbCet1, CthTTM [4]	IC50 [1]	IC50 ([5]; IC50 TbCet1 by 32P assay)	other results
–	O=C(/C=C/c1ccc(O)c(O)c1)OC1[C@H](OC(=O)/C=C/c2ccc(O)c(O)c2)CC(O)(C(=O)O)C[C@H]1OC(=O)/C=C/c1ccc(O)c(O)c1 (stereo in doubt) [Compound 1D, 3,4,5-Tricaffeoylquinic acid]	107	7.2 µM	48	160 µM	1,067	–	–	fold lower potency against MimiCE than against TbCet1 [1]: 107 fold; IC50 [1, 6]: 16 µM; fold lower potency against SceCet1 than against TbCet1 [2]: 67 fold; IC50 [2, 7]: 10 µM; IC50/IC50 TbCet1, SceCet1 [2]: 67; fold lower potency against Lef4 than against TbCet1 [3]: 48 fold; fold lower potency against CthTTM than against TbCet1 [4]: 1,100 fold
–	O=C(Oc1cc(C(=O)O[C@@H]2C[C@@](O)(C(=O)O)C[C@@H](O)[C@@H]2O)cc(O)c1O)c1cc(O)c(O)c(O)c1 [Compound 1C, 5-galloyl-galloylquinic acid]	–	75 µM	682	–	–	–	–	IC50 [2, 10]: > 500 µM; fold lower potency against Lef4 than against TbCet1 [3]: 680 fold; IC50 [4, 11]: > 500 µM; fold more potent as TbCet1 inhibitor than 5-galloylquinic acid (compound 1O) [5]: 1,100 fold
–	O=C(/C=C/c1ccc(O)c(O)c1)O[C@@H]1C[C@](OC(=O)/C=C/c2ccc(O)c(O)c2)(C(=O)O)C[C@@H](OC(=O)/C=C/c2ccc(O)c(O)c2)[C@H]1O [Compound 1E, 1,3,5-tricaffeoylquinic acid]	44	5.6 µM	29	33 µM	174	8.4 µM	0.19 µM	IC50 [2, 7]: 29 µM; IC50/IC50 TbCet1, SceCet1 [2]: 153
–	O=C(Oc1cc(C(=O)O[C@@H]2C[C@@](O)(C(=O)O)C[C@@H](OC(=O)c3cc(O)c(O)c(O)c3)[C@@H]2O)cc(O)c1O)c1cc(O)c(O)c(O)c1 [Compound 1F, 3-galloyl,5-galloyl-galloylquinic acid]	15	33 µM	150	–	95	–	–	IC50 [1, 6]: 3.4 µM; IC50 [2, 10]: > 500 µM; IC50 [4, 11]: 21 µM
–	O=C(/C=C/c1ccc(O)c(O)c1)O[C@@H]1C[C@](OC(=O)/C=C/c2ccc(O)c(O)c2)(C(=O)O)C[C@@H](O)[C@H]1O [Compound 1G, 1,3-dicaffeoylquinic acid]	11	22 µM	65	55 µM	162	–	–	IC50 [1, 6]: 3.7 µM; IC50 [2, 7]: > 500 µM
–	O=C(/C=C/c1ccccc1)O[C@@H]1C[C@](OC(=O)/C=C/c2ccccc2)(C(=O)O)C[C@@H](OC(=O)/C=C/c2ccccc2)[C@H]1OC(=O)/C=C/c1ccccc1 [Compound 1I, tetracinnamoylquinic acid]	11	6 µM	4	–	11	17 µM	1.6 µM	IC50 [2]: > 500 µM; IC50 [4]: 17 µM; fold less potent as TbCet1 inhibitor than tetracaffeoylquinic acid (compound 1A) [5]: 120 fold
2.4 µM	COc1ccc(/C=C/C(=O)O[C@@H]2C[C@@](O)(C(=O)O)C[C@@H](O)[C@@H]2O)cc1O [Compound 1J, 5-p-feruoylquinic acid]	–	–	–	> 500 µM	–	–	–	IC50 [2, 7]: > 500 µM
–	O=C(OC1[C@H](OC(=O)c2ccccc2)CC(OC(=O)c2ccccc2)(C(=O)O)C[C@H]1OC(=O)c1ccccc1)c1ccccc1 (some centres unmarked) [Compound 1K]	3	46 µM	8	–	12	20 µM	5.8 µM	IC50 [2]: > 500 µM; IC50 [4]: 72 µM
–	O=C(/C=C/c1ccc(O)cc1)O[C@@H]1CC(O)(C(=O)O)C[C@@H](OC(=O)/C=C/c2ccc(O)cc2)C1O (some centres unmarked) [Compound 1M, 3,5-dicoumaroylquinic acid]	–	> 500 µM	–	–	–	> 500 µM	24 µM	IC50 [2]: > 500 µM; IC50 [4]: > 500 µM; fold drop in potency of TbCet1 inhibition versus 3,5-dicaffeoylquinic acid (compound 1B) [5]: 340 fold
–	O=C(/C=C/c1ccc(O)cc1)OC1[C@H](O)CC(O)(C(=O)O)C[C@H]1O (some centres unmarked) [Compound 1N]	–	> 500 µM	–	> 500 µM	–	> 500 µM	25 µM	IC50 [2, 7]: > 500 µM
–	O=C(O[C@@H]1C[C@@](O)(C(=O)O)C[C@@H](O)[C@@H]1O)c1cc(O)c(O)c(O)c1 [Compound 1O, 5-galloylquinic acid]	–	> 500 µM	–	–	–	> 500 µM	125 µM	activity against MimiCE (in words) [1]: no activity; IC50 [2]: 10 µM; IC50/IC50 TbCet1, SceCet1 [2]: 0.08; activity against Lef4 (in words) [3]: no activity; IC50 [4]: > 500 µM; activity against CthTTM (in words) [4]: no activity
160 µM	COc1cc(C=CC(=O)OC2[C@H](O)CC(O)(C(=O)O)C[C@H]2O)ccc1O (some centres unmarked) [Compound 1P, 4-feruoylquinic acid]	–	–	–	–	–	–	–	fold less effective against TbCet1 than 5-feruoylquinic acid [5]: 13 fold
> 500 µM	COc1cc(/C=C/C(=O)OC2(C(=O)O)C[C@@H](O)C(O)[C@H](O)C2)ccc1O (some centres unmarked) [Compound 1R, 1-feruoylquinic acid]	–	–	–	–	–	–	–	inhibition of TbCet1 (in words) [5]: inactive
–	O=C(O)/C=C/c1ccc(O)c(O)c1 [Compound 3B, caffeic acid]	–	–	–	310 µM	–	> 500 µM	29 µM	activity against MimiCE (in words) [1]: inactive; IC50 [2]: > 500 µM; IC50 [3]: 75 µM
–	O=C(/C=C/c1ccc(O)c(O)c1)O[C@@H]1[C@H](OC(=O)/C=C/c2ccc(O)c(O)c2)C[C@]2(OC(=O)/C=C/c3ccc(O)c(O)c3)C[C@H]1OC2=O [Compound 6A, 1,4,5-tricaffeoylquinide]	17	2.6 µM	22	–	53	2 µM	0.12 µM	IC50 [2]: 2 µM; IC50/IC50 TbCet1, SceCet1 [2]: 17; IC50 [4]: 6.4 µM
> 500 µM	O=C(C=Cc1ccccc1)OC1C=C(C(=O)O)CC(OC(=O)C=Cc2ccccc2)C1O (centres unmarked) [Compound 6D, 3,5-dicannamolylshikimate]	–	–	–	–	–	–	–	inhibition of TbCet1 (in words) [5]: did not inhibit
> 500 µM	O=C(/C=C/c1ccc(O)c(O)c1)O[C@@H]1CC(C(=O)O)=C[C@@H](O)[C@H]1O [Compound 6E, 5-caffeoylshikimate]	–	–	–	–	–	–	–	inhibition of TbCet1 (in words) [5]: did not inhibit
–	O=C(O)[C@]1(O)C[C@@H](O)[C@@H](O)[C@H](O)C1 [Quinic acid, reference compound]	–	–	–	–	–	–	–	inhibition of TbCet1 (in words) [5]: no inhibition
–	O=C(O)c1cc(O)c(O)c(O)c1 [gallic acid, 3,4,5-trihydroxybenzoic acid, reference compound]	–	–	–	–	–	–	–	inhibition of TbCet1 (in words) [5]: no inhibition

Structure (SMILES)	IC50 [5, 12]	IC50/IC50 TbCet1, MimiCE [1]	IC50 [3, 8]	IC50/IC50 TbCet1, Lef4 [3]	IC50 [4, 9]	IC50/IC50 TbCet1, CthTTM [4]	IC50 [1]	IC50 ([5]; IC50 TbCet1 by 32P assay)	other results
O=C(/C=C/c1ccc(O)cc1)O[C@@H]1[C@H](O)C[C@@](O)(C(=O)O)C[C@H]1OC(=O)/C=C/c1ccc(O)cc1 [Compound 1H, 3,4-dicoumaroylquinic acid]	1.3 µM	40	140 µM	108	–	–	–	–	IC50 [1, 6]: 52 µM; IC50 [2, 10]: > 500 µM; IC50 [4, 11]: > 500 µM
COc1cc(/C=C/C(=O)O[C@@H]2C[C@](O)(C(=O)O)C[C@@H](O)[C@H]2O)ccc1O [Compound 1L, 5-feruoylquinic acid]	12 µM	–	> 500 µM	–	> 500 µM	–	–	–	IC50 ([1]; 7 nM MimiCE, 37°C, read-out: IC50 MimiCE): > 500 µM; IC50 [2, 7]: > 500 µM
O=C(/C=C/c1ccc(O)c(O)c1)O[C@@H]1C[C@@](O)(C(=O)O)C[C@@H](O)[C@@H]1O [Compound 1T, 5-caffeoylquinic acid]	> 500 µM	–	–	–	–	–	–	–	–
